{"source": "patent US20240123022A1", "about": "“A STABLE ANTI-ANGIOGENIC AND ANTI-INFLAMMATORY PHARMACEUTICAL FORMULATION AND PHARMACEUTICAL COMBINATION FOR TREATMENT AND PREVENTION OF PSORIASIS” (priority 2021, published 2024)", "key": {"HUVEC cells": {"system": "HUVEC cells", "assay": "Tube formation assay in HUVEC cells (VEGF induced)", "format": "cell-based, human", "set-up": "Tube formation assay results, Avg: scale not given here", "experimental": "HUVEC cells were used as test system to determine angiogenic effect of IS217 by assessing the inhibitory effects of test item on endothelial cells tube formation. Prior to the tube formation assay, test item of concentration ranging 0.01 μg/ml to 1000 μg/ml were used to treat endothelial cells for its cytotoxicity effect to assess suitable concentration for tube formation assay. […] The cells corresponding to positive control group were treated with bevacizumab of concentration 1000 μg/ml. The degree of angiogenesis progression was assessed based on visual pattern recognition of photomicrographs of HUVEC cells."}, "[1]": {"system": "Salmonella typhimurium tester strains", "assay": "Bacterial reverse mutation test", "format": "cell-based", "conditions": "five tester strains, upto 1000 μg/plate, with and without metabolic activation", "from_the_text": "17.1: Bacterial Reverse Mutation Test in Salmonella typhimurium Tester Strains:\nThis was confirmed by in vivo studies which are mandatory for any drug, as a part of safety toxicological studies."}, "[2]": {"system": "TNF-α, IFN-γ, TARC, TSLP, IL-6, IL-8, IL-23, IL-17A and IL-1-0 levels", "assay": "Cytokine levels in LPS stimulated RAW264.7 cells and HaCaT cells", "format": "cell-based", "conditions": "LPS stimulated RAW264.7 and HaCaT cells, vs untreated controls", "from_the_text": "In pathogenesis of psoriasis, angiogenesis and tyrosine kinases involves cell proliferation, cell migration, DNA Fragmentation and tube formation in endothelial cells. […] RAW264.7 cells (Murine macrophage cell line) which is stimulated with LPS and in HaCaT cells human keratinocytes (HaCaT) TNF-α, IFN-γ, TARC, TSLP, IL-6, IL-8, IL-23, IL-17A and IL-1-0 levels were overexpressed in disease pathogenesis, but when treated with IS217, all the above mentioned cytokines levels are decreased when compared with untreated controls."}, "human plasma proteins [3]": {"system": "human plasma proteins", "assay": "in vitro", "procedure": "(§2) Test item at concentration of about 100 μg/ml was incubated with human plasma at 37° C. in water bath for about 1 hour. About 500 μL of test solution was transferred to ultrafiltration devices and centrifuged for about 15 minutes at about 13000 rpm and at 37° C. and analyzed using HPLC method."}, "human plasma proteins [4]": {"system": "human plasma proteins", "procedure": "as §2"}, "[5]": {"system": "isolated rabbit erythrocyte", "format": "cell-based", "experimental": "This study was conducted to test whether IS217 induced haemolysis or not. The study was conducted in IV intended concentration."}, "[6]": {"assay": "Pre-formulation stability and maximum feasible concentration", "format": "physicochemical", "experimental": "This study is important in CMC preparation of any drug. The study was conducted to develop suitable pre-formulations of IS217 for four administration routes selected for in vivo studies and to determine maximum concentration of IS217 peptide which is feasible in these pre-formulation i.e., maximum feasible concentration (MFC). Four different aqueous based pre-formulations of IS217 like 10% v/v Tween 20, 20% v/v glycerol, 10% PG v/v in 0.9% NaCl solution and 0.9% NaCl alone were prepared and were first subjected to stability study at intended use of temperature (RT) for about 24 hours. HPLC based assay method was used to evaluate the stability.\nOut of these, four aqueous based pre-formulation, 0.9% NaCl solution was selected for intravenous (IV) and intraperitoneal (IP) route and also the aqueous vehicle for co-solvent pre-formulation, based on its stability and suitability at physiological conditions. For subcutaneous (SC)/intramuscular route (IM), a co-solvent-based pre-formulation was developed. 10% propylene glycol (PG) in 0.9% NaCl solution was selected as pre-formulation for SC/IM. Maximum feasible concentration of IS217 in both the pre-formulations was greater than 50 mg/ml."}, "Caspase 3": {"system": "Caspase 3", "assay": "Caspase-3 activation assay in HaCaT cells", "format": "cell-based, human", "conditions": "100 to 5000 μg/mL, 24 h and 48 h, vs untreated cells", "from_the_text": "The study aimed to determine action of IS217 on the death mediator Caspase 3 which acts as dominant regulator during cell death induction. HaCaT cells were used as test system and in house validation assay was done by using Anthralin dissolved in DMSO (positive control)."}, "other kinases": {"system": "other kinases", "assay": "Z′LYTE activity assay, tyrosine kinases", "format": "biochemical", "conditions": "low concentration tested of 10 μg/ml", "from_the_text": "(§1) Tyrosine kinases play key role in pathogenesis of psoriasis IS217 was investigated for possible inhibition of various tyrosine kinase, which play crucial role in pathogenesis of psoriasis. The method employed to detect the effect was Z′LYTE activity assay."}, "MAPK1 (MEK 1)": {"system": "MAPK1 (MEK 1)", "assay": "Z′LYTE activity assay, tyrosine kinases", "format": "biochemical", "conditions": "10 μg/ml-250 μg/ml", "from_the_text": "as §1"}, "JAK-STAT pathway": {"system": "JAK-STAT pathway", "assay": "Z′LYTE activity assay, tyrosine kinases", "format": "biochemical", "from_the_text": "as §1"}, "Topoisomerase II enzyme": {"target": "T1, Topoisomerase II enzyme (Homo sapiens, UniProt P11388)", "T1 construct": "purchased TopoGen TG2000H-1", "T1 sequence (P11388 whole entry)": "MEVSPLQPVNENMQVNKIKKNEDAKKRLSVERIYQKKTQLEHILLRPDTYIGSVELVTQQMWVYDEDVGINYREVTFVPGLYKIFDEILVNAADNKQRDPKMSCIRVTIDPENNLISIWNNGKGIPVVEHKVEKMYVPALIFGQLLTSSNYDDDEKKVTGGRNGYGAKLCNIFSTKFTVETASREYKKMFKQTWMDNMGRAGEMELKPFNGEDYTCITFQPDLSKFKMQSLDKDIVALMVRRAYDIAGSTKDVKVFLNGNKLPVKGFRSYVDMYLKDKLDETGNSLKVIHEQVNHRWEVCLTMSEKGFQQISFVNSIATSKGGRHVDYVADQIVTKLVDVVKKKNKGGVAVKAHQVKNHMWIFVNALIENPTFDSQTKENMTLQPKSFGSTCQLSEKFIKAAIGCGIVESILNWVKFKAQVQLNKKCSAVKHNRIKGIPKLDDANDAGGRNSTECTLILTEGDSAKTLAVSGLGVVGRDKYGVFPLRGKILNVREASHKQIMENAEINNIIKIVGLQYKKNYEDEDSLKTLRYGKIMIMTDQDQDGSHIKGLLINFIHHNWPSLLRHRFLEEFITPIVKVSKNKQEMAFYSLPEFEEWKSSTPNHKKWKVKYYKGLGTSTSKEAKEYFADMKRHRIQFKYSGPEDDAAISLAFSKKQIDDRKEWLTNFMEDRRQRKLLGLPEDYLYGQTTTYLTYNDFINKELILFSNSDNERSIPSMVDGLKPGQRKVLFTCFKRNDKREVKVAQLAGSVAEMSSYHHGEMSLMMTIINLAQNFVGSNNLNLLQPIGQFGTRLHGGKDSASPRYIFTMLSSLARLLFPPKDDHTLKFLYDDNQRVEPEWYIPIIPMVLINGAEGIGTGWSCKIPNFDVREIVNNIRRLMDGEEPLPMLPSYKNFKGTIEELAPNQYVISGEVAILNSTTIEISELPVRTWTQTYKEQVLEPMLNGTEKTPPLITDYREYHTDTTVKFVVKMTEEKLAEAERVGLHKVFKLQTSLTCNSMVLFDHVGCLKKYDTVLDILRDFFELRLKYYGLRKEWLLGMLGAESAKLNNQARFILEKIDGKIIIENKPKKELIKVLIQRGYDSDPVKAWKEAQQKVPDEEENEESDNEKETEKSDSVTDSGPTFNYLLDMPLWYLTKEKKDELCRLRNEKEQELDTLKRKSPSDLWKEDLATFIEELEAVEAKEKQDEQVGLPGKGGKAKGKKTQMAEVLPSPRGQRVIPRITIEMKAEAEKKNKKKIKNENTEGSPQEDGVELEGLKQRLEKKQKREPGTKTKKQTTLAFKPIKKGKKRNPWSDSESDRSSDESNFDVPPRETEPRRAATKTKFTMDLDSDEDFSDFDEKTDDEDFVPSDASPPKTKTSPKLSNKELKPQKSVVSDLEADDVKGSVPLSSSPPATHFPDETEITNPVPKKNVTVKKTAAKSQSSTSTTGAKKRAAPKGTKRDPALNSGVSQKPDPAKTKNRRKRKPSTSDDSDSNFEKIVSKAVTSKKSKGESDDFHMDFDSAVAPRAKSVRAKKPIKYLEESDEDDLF", "assay": "Topoisomerase II inhibition (kinetoplast DNA decatenation, agarose gel)", "format": "biochemical", "experimental": "Topoisomerase II inhibitory potential of IS217 was evaluated using widely reported kinetoplast DNA as test system in presence of Topoisomerase II enzyme. IS217 was tested at concentrations ranging from 0.01 μg/ml to 1 mg/ml. Doxorubucin hydrochloride and nalidixic acid were used as positive controls at the concentration of 10 μM and 1 mg/ml, respectively.\nInhibition of release of decatenated KDNA products was used as a specific marker to assess the inhibitory activity of IS217 on topoisomerase II enzyme, which was determined by using 1% agarose gel electrophoresis."}, "HaCaT cells": {"system": "HaCaT cells", "assay": "TUNEL assay", "format": "cell-based, human", "conditions": "for % increase in TUNEL-Positive cell population w.r.t. control (untreated cells): 48 h", "experimental": "Terminal deoxynucleotidyl transferase (TdT) dUTP Nick-End Labeling (TUNEL) assay has been designed to detect apoptotic cells that undergo extensive DNA degradation during the late stages of apoptosis. […] Cells were treated with test item (IS217 of 100 μg/ml-5000 μg/ml) and positive controls like curcumin (10 μM and 20 μM), anthralin (1 μM) and betullininc acid (10 μg/ml, 20 μg/ml, 50 μg/ml). After about 48 hours of treatment, cells were analysed for the apoptotic effect via TUNEL assay. Absorbance was measured using ELISA reader (Table 1)."}}, "note": "Read-outs that look alike come from different tables or passages of the source."}
{"substance": "H-FAKKFAKKFK-OH [IS217, H-Phe-Ala-Lys-Lys-Phe-Ala-Lys-Lys-Phe-Lys-OH]", "values": [{"measurement": "Tube formation assay results, Avg", "setting": "HUVEC cells; 100 μg + VEGF", "result": 2.55}, {"measurement": "Tube formation assay results, Avg", "setting": "HUVEC cells; 100 μg, without VEGF", "result": 0.33}, {"measurement": "Tube formation assay results, Avg", "setting": "HUVEC cells; 250 μg + VEGF", "result": 1.33}, {"measurement": "Tube formation assay results, Avg", "setting": "HUVEC cells; 250 μg, without VEGF", "result": 0.33}, {"measurement": "Tube formation assay results, Avg", "setting": "HUVEC cells; 500 μg + VEGF", "result": 0.88}, {"measurement": "Tube formation assay results, Avg", "setting": "HUVEC cells; 500 μg, without VEGF", "result": 0.33}, {"measurement": "Tube formation assay results, Avg", "setting": "HUVEC cells; 1000 μg + VEGF", "result": 0.55}, {"measurement": "Tube formation assay results, Avg", "setting": "HUVEC cells; 1000 μg, without VEGF", "result": 0.33}, {"measurement": "inhibition of endothelial morphogenesis on matrigel", "setting": "HUVEC cells; HUVEC, 1000 μg/ml", "result": "Complete inhibition"}, {"measurement": "endothelial tube formation", "setting": "HUVEC cells; HUVEC, all test concentrations 100 μg/ml to 1000 μg/ml", "result": "block endothelial tube formation"}, {"measurement": "mutagenicity (gene mutations at histidine locus)", "setting": "[1]", "result": "non mutagenic"}, {"measurement": "cytokines levels (TNF-α, IFN-γ, TARC, TSLP, IL-6, IL-8, IL-23, IL-17A, IL-1-0)", "setting": "[2]", "result": "decreased"}, {"measurement": "fraction unbound at 1 hour, 100 μg/ml", "setting": "human plasma proteins [3]", "result": 0.466}, {"measurement": "fraction unbound at 1 hour, 100 μg/ml", "setting": "human plasma proteins [3]; free fraction", "result": "0.466 ± 0.03"}, {"measurement": "binding affinity to human plasma proteins", "setting": "human plasma proteins [4]", "result": "moderate binding affinity"}, {"measurement": "mean hemoglobin value compared with negative control and positive control", "setting": "[5]", "result": "non-significant"}, {"measurement": "mean haemolytic index", "setting": "[5]; red cells of rabbit", "result": 0, "unit": "%"}, {"measurement": "Maximum feasible concentration", "setting": "[6]; 0.9% NaCl solution (IV, IP pre-formulation)", "result": "greater than 50 mg/ml"}, {"measurement": "Maximum feasible concentration", "setting": "[6]; 10% propylene glycol in 0.9% NaCl solution (SC/IM pre-formulation)", "result": "greater than 50 mg/ml"}, {"measurement": "physical appearance of pre-formulations", "setting": "[6]; four aqueous pre-formulations, RT, 24 hours", "result": "no visual changes"}, {"measurement": "activation of Caspase 3", "setting": "Caspase 3", "result": "did not lead to activation"}, {"measurement": "inhibition of other kinases", "setting": "other kinases", "result": "Moderate to low inhibition"}, {"measurement": "inhibition of MAPK1 (MEK 1)", "setting": "MAPK1 (MEK 1)", "result": "good inhibition"}, {"measurement": "inhibition of JAK-STAT pathway", "setting": "JAK-STAT pathway", "result": "No inhibition"}, {"measurement": "topoisomerase II enzyme inhibition", "setting": "Topoisomerase II enzyme; 0.01 μg/ml to 10 μg/ml", "result": "no topoisomerase II enzyme inhibition"}, {"measurement": "topoisomerase II enzyme inhibition", "setting": "Topoisomerase II enzyme; 100 μg/ml", "result": "some extent of inhibition"}, {"measurement": "topoisomerase II enzyme inhibition", "setting": "Topoisomerase II enzyme; 1 mg/ml, highest tested concentration", "result": "better inhibition"}, {"measurement": "% increase in TUNEL-Positive cell population w.r.t. control (untreated cells)", "setting": "HaCaT cells; 500 μg/ml", "result": "−25.0", "unit": "%"}, {"measurement": "% increase in TUNEL-Positive cell population w.r.t. control (untreated cells)", "setting": "HaCaT cells; 1000 μg/ml", "result": "−20.4", "unit": "%"}, {"measurement": "% increase in TUNEL-Positive cell population w.r.t. control (untreated cells)", "setting": "HaCaT cells; 2000 μg/ml", "result": "−25.4", "unit": "%"}, {"measurement": "% increase in TUNEL-Positive cell population w.r.t. control (untreated cells)", "setting": "HaCaT cells; 5000 μg/ml", "result": "−40.7", "unit": "%"}, {"measurement": "increase in apoptotic cells (TUNEL positive population)", "setting": "HaCaT cells; tested concentration range 100-5000 μg/ml, vs untreated", "result": "No increase"}]}
